The values below are quoted from earlier work in PMC10049421, “Anticancer Activity of Sunitinib Analogues in Human Pancreatic Cancer Cell Cultures under Normoxia and Hypoxia” (International Journal of Molecular Sciences, 2023).

Data set [1] relates to PANC-1 cells. The following applies: cited from earlier work.
In data set [2] the test system is BxPC-3 cell line. The following applies: BxPC-3, concentration-dependent; cited from earlier work.
Data set [3] relates to Capan-2 cell line. As to conditions: Capan-2, concentration-dependent; cited from earlier work.
Data set [4] has as its system MIA PaCa-2 cell line. Further details: method as in PMID 30341797. As to conditions: MIA PaCa-2, 5 μM; cited from earlier work.
Data set [5] relates to PANC-1 cell monolayer. The following applies: PANC-1, 1 μM, 24 h and 48 h; cited from earlier work.
Data set [6] relates to MIA PaCa-2 cell line. Further details: method as in PMID 26176887. As to conditions: MIA PaCa-2, 1 μM, 24 h and 48 h; cited from earlier work.

Regarding `CN(C)C/C=C/C(=O)Nc1cc2c(Nc3ccc(F)c(Cl)c3)ncnc2cc1O[C@H]1CCOC1` [Afatinib], the cell colony formation result is recorded as “did not show an effect” in data set [1] (PANC-1, 0.25 to 2 μM); “inhibited cell colony formation” in data set [2]; “inhibited cell colony formation” in data set [3].

As to `Nc1ccn([C@@H]2O[C@H](CO)[C@@H](O)C2(F)F)c(=O)n1` [gemcitabine], the colony formation entry in data set [1] (PANC-1, 5 μM) was “statistically significantly reduced”; in data set [4], “statistically significantly reduced”. Moreover, the “'wounds' compared to the control” value in data set [5] and in data set [6] was “did not show a significant difference” throughout.
